According to publication PMC5478727, “A Novel Small Molecule GDNF Receptor RET Agonist, BT13, Promotes Neurite Growth from Sensory Neurons in Vitro and Attenuates Experimental Neuropathy in the Rat” (Frontiers in Pharmacology, 2017):

Assays:
[1] = target: norepinephrine transporter (Homo sapiens, UniProt P23975); test: biochemical; conditions: read-out: Percentage of inhibition/potentiation from control
[2] = system: Akt and Erk phosphorylation in MG87TrkA; test: Erk1/2 and Akt phosphorylation assay in MG87TrkA cells; format: cell-based, murine; conditions: BT13 10–100 μM, NGF positive control
Description: MG87RET, MG87TrkA, or MG87TrkB were plated on 35 mm tissue culture dishes 1–2 days before the experiment to achieve 90–95% of confluency of the cells at the day of stimulation with tested substances. If necessary, cells were transfected with 4 μg/well of GFRα1-, GFRα3-, or green fluorescent protein (GFP)-expressing plasmid using Lipofectamine 2000 (Invitrogen) for DNA delivery as described by manufacturer. Before the experiment cells were starved in serum-free DMEM containing 15 mM HEPES, pH 7.2 and 1% DMSO for 4 h and stimulated with BT13 or neurotrophic factors. Then cells were washed once with ice-cold PBS containing 1 mM Na3VO4 and 1 mM NaF and lysed on ice in 1 ml per well of RIPA-modified buffer (50 mM Tris-HCl, pH 7.4, 150 mM NaCl, 1 mM EDTA, 1% NP-40, 1% TX-100, 10% glycerol, EDTA-free protease inhibitor cocktail (Roche), 1 mM Na3VO4, 2.5 mg/ml of sodium deoxycholate, 1 mM NaF). Plates were incubated at +4°C on the horizontal shaker for 30 min with vigorous shaking. Afterwards, 80–100 μl aliquot was taken from each well to prepare whole cell lysates. This aliquot was mixed with equal volume of 2x Laemmli loading buffer (4% SDS, 20% glycerol, 10% 2-mercaptoethanol, 0.004% bromphenol blue, 0.125 M Tris HCl, pH 6.8) and boiled for 10 min at 100°C. Remaining cell lysates were used for immunoprecipitation of RET or Trk receptors. […]

RET = target: T1, RET (Homo sapiens, UniProt P07949); test: RET phosphorylation assay in MG87RET fibroblasts (GFRα3/RET and GFP/RET); format: cell-based, murine; conditions: 25–50 μM; in the presence and absence of GFRα3 co-receptor
T1 construct: full-length human RET (long isoform) in pCR3.1; expressed in transfected cells; host or cells: MG87RET murine fibroblasts

[3] = Solubility in the binding buffer; format: physicochemical; conditions: concentrations above 50 μM could not be tested
adenosine receptor A1 = adenosine receptor A1 (Homo sapiens, UniProt P30542); test: CEREP A1 (h) (antagonist radioligand); format: binding; conditions: BT13 1 μM; Cat. No. 0002; average of duplicate; read-out: Percentage of inhibition/potentiation from control
GFRα3/RET = target: T2, GFRα3/RET (Homo sapiens, UniProt P07949); test: Luciferase reporter-gene assay (PathDetect Elk-1), GFRα3/RET reporter cells; format: cell-based; conditions: GFRα3/RET reporter cell line
T2 construct: full-length human RET (long isoform) in pCR3.1; expressed in transfected cells; host or cells: MG87 murine fibroblasts (MG87RET + PathDetect Elk-1 + GFRα3)

[4] = target: T3, Protein Serine/Threonine Phosphatase, PP2A (Homo sapiens, UniProt P67775); test: CEREP Protein Serine/Threonine Phosphatase, PP2A; format: biochemical; conditions: BT13 1 μM; Cat. No. 3953; average of duplicate; read-out: Percentage of inhibition/potentiation from control
T3 construct: purchased CEREP (contract assay) 3953

[5] = system: adrenergic receptor alpha 1; test: CEREP Alpha 1 (non-selective; antagonist radioligand); format: binding; conditions: BT13 1 μM; Cat. No. 0008; average of duplicate
[6] = Plasma stability, rat plasma; format: in vitro ADME; conditions: read-out: Plasma stability (% remaining after 1 h)
dopamine transporter = dopamine transporter (Homo sapiens, UniProt Q01959); test: biochemical; conditions: read-out: Percentage of inhibition/potentiation from control
TrkB = target: T4, TrkB (Rattus norvegicus, UniProt Q63604); test: Luciferase reporter-gene assay, TrkB reporter cells; format: cell-based; conditions: TrkB reporter cell line
T4 construct: expressed in transfected cells; host or cells: MG87 murine fibroblasts (MG87TrkB)

CYP2C9 = target: T5, CYP2C9 (Homo sapiens, UniProt P11712); test: CYP inhibition, fluorescent assay; format: biochemical; conditions: read-out: Inhibition of CYP isoforms (IC50), CYP2C9
T5 construct: Cyathus Exquirere (contract laboratory)

[7] = Plasma stability, mouse plasma; format: in vitro ADME; conditions: read-out: Plasma stability (% remaining after 1 h)
[8] = target: cholecystokinin receptor CCK2 (CCKB) (Homo sapiens, UniProt P32239); test: CEREP CCK2 (CCKB) (h) (agonist radioligand); format: binding; conditions: BT13 1 μM; Cat. No. 0041; average of duplicate; read-out: Percentage of inhibition/potentiation from control
[9] = Plasma stability, human plasma; format: in vitro ADME; conditions: read-out: Plasma stability (% remaining after 1 h)
[10] = target: T6, hERG (human Ether-à-go-go-related gene) (Homo sapiens, UniProt Q12809); test: hERG competition assay with [3H]-astemizole; format: binding; conditions: competition with [3H]-astemizole; membranes of HEK293 cells; read-out: hERG inhibition (Ki)
T6 construct: host or cells: HEK293

CYP1A2 = CYP1A2 (Homo sapiens, UniProt P05177); test: CYP inhibition, fluorescent assay; format: biochemical; conditions: read-out: Inhibition of CYP isoforms (IC50), CYP1A2
5-HT transporter = 5-HT transporter (Homo sapiens, UniProt P31645); test: biochemical; conditions: read-out: Percentage of inhibition/potentiation from control

T2 sequence (P07949 29-1114): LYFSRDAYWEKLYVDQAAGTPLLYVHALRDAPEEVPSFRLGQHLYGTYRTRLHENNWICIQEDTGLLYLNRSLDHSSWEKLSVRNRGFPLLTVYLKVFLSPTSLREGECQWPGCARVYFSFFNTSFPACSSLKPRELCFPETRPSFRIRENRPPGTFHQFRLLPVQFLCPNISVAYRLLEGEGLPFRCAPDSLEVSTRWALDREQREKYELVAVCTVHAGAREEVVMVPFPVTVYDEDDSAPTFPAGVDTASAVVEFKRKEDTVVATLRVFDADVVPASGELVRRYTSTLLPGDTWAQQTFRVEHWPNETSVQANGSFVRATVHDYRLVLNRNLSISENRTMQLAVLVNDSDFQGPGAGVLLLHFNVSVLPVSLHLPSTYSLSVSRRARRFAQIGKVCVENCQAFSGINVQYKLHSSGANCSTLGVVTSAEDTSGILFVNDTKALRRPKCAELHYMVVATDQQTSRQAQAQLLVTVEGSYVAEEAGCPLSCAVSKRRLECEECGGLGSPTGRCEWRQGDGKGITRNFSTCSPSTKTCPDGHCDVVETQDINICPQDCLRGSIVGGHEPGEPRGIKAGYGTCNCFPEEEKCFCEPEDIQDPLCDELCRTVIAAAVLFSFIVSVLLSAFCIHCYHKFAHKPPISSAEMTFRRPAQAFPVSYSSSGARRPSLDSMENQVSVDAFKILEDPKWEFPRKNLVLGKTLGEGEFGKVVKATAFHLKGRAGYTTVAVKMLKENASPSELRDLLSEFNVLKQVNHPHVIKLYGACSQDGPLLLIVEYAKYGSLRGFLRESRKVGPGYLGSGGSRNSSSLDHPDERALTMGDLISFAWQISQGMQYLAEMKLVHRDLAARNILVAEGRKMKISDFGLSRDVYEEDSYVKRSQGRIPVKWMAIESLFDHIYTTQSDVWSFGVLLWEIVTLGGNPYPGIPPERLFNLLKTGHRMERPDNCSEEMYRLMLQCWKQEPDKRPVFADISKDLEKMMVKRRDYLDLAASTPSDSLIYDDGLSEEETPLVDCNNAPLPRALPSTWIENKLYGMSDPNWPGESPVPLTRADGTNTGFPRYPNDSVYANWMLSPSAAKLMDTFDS
T4 sequence (Q63604 32-821): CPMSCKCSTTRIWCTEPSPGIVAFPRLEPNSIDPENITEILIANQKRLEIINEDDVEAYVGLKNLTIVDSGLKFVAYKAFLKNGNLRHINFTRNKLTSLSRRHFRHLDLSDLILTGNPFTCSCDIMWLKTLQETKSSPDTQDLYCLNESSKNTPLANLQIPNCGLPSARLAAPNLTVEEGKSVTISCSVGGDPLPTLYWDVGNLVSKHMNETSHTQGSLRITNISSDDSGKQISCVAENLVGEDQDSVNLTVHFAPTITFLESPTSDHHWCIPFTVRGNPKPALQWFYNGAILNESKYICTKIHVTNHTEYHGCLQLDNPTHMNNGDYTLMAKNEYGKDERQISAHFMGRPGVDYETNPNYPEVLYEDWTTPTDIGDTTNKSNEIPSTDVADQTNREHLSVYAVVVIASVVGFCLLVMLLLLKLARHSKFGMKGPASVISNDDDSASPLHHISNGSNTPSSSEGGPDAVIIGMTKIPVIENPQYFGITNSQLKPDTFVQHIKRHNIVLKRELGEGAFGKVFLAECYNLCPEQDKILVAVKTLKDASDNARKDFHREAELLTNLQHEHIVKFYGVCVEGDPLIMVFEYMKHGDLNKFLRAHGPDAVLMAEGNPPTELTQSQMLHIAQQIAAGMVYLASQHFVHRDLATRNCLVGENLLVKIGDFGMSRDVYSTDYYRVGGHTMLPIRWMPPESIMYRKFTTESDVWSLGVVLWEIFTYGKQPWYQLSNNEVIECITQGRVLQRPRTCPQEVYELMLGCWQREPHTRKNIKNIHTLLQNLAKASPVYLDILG
T6 sequence (Q12809 whole entry): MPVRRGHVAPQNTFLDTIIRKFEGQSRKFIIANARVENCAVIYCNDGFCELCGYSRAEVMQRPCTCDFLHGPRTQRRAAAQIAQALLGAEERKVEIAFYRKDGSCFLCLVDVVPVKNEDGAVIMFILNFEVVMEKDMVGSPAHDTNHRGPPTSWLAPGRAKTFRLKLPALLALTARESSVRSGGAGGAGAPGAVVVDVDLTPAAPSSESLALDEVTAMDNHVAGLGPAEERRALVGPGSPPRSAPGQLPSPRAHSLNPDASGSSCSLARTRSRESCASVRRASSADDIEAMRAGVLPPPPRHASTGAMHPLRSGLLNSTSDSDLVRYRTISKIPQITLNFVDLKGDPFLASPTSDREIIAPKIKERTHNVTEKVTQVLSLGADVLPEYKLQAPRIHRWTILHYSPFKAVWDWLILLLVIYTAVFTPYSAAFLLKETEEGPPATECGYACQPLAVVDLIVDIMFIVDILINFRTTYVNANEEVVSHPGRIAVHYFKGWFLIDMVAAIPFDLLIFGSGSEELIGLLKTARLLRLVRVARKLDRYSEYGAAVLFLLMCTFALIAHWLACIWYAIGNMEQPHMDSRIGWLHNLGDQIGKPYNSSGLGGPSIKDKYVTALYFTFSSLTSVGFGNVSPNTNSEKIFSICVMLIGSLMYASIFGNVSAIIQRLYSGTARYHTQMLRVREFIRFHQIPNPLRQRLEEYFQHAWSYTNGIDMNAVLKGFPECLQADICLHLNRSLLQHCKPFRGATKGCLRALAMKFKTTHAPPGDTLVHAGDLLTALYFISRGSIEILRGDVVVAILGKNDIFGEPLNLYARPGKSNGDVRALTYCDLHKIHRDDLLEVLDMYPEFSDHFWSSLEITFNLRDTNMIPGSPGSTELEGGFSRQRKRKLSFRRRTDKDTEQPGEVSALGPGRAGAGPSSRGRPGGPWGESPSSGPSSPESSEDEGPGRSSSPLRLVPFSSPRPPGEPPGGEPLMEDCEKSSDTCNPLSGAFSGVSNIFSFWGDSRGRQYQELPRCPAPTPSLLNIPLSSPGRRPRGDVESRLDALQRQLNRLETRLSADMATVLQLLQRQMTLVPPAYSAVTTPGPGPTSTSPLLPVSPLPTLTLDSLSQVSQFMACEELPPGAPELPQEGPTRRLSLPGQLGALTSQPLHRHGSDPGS
T3 sequence (P67775 whole entry): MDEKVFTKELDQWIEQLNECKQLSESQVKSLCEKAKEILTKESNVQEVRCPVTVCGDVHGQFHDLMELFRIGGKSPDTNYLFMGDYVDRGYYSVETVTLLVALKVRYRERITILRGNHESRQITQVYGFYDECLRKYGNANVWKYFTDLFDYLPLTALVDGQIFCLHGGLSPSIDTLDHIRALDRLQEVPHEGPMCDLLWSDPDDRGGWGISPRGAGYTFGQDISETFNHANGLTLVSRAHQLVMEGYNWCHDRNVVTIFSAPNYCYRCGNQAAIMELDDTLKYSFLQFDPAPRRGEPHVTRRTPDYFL
CYP1A2, sequence (P05177 whole entry, canonical isoform): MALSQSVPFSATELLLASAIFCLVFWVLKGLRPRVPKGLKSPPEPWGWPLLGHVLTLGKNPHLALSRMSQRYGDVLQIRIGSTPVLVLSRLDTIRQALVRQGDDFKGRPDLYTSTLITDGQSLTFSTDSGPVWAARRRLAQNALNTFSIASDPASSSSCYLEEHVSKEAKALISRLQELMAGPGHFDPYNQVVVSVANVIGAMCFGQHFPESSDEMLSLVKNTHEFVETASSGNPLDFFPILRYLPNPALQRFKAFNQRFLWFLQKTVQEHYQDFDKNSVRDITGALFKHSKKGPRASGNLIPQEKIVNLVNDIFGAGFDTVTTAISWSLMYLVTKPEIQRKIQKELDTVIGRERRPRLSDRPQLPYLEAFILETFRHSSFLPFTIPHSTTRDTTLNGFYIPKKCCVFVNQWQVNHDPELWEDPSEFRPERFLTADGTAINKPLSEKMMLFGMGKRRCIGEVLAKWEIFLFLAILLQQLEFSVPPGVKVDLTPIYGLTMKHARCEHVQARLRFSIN
dopamine transporter, sequence (Q01959 whole entry): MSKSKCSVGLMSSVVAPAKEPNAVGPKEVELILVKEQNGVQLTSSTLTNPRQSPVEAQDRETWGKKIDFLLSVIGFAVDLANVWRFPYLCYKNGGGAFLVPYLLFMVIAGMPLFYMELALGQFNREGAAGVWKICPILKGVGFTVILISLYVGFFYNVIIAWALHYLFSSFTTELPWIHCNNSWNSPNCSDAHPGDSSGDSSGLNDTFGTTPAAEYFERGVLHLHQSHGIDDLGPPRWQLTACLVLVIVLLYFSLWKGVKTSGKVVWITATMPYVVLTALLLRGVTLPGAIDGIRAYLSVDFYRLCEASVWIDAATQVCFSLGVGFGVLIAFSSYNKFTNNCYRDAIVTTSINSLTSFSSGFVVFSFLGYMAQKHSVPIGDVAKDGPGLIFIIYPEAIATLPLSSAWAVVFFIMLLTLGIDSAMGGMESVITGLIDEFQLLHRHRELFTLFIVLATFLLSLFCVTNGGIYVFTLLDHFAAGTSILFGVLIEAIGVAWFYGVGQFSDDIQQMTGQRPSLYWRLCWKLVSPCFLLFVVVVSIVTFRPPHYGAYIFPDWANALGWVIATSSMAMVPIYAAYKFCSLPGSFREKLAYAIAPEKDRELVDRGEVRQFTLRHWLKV
T1 sequence (P07949 29-1114): as the sequence (P07949 29-1114) above
T5 sequence (P11712 whole entry, canonical isoform): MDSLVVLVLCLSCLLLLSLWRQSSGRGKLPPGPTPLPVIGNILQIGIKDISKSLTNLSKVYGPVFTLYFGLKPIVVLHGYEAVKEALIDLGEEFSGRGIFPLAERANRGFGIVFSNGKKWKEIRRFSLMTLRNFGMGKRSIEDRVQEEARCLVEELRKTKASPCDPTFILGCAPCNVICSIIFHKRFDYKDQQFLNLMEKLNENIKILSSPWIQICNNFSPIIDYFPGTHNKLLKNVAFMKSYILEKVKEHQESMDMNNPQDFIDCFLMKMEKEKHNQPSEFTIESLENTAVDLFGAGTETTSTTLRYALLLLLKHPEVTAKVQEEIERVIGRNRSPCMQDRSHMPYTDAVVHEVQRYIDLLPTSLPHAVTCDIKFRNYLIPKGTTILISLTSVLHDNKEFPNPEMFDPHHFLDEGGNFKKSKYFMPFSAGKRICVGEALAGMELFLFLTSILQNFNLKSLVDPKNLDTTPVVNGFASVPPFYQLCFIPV

SMILES: CCN(CC)S(=O)(=O)c1ccc(OC)c(N2CCN(C(=O)c3ccc(F)cc3C(F)(F)F)CC2)c1 [BT13]
- inhibition at 1 µM [1]: -5%
- Akt and Erk phosphorylation [2]: no Akt or Erk phosphorylation was observed
- RET phosphorylation (170 kD mature glycosylated form), Western blotting (RET): elicited phosphorylation
- solubility in the binding buffer [3]: poor solubility
- inhibition at 1 µM (adenosine receptor A1): 5%
- efficacy, fold induction of luciferase above baseline (GFRα3/RET): 8.9 fold
- EC50 (GFRα3/RET; 0.1–50 μM, read-out: EC50, luciferase activation): 20.5 µM
- inhibition at 1 µM [4]: 4%
- Percentage of inhibition/potentiation from control [5]: 2%
- remaining at 1 h [6]: 108 ± 7.3%
- inhibition at 1 µM (dopamine transporter): 6%
- activation of luciferase reporter (TrkB): did not activate luciferase
- IC50 (CYP2C9): > 100 µM
- remaining at 1 h [7]: 110 ± 3.1%
- inhibition at 1 µM [8]: 1%
- remaining at 1 h [9]: 97 ± 0.1%
- Ki [10]: > 30 µM
- IC50 (CYP1A2): > 100 µM
- inhibition at 1 µM (5-HT transporter): 0%
